Measurements taken from patent US12545677B2, “Compounds useful as factor XIa inhibitors” (JANSSEN PHARMACEUTICA NV, priority 2020, dated 2026).

How the values were obtained:
[1] = Reactive metabolite study in human liver microsomes (GSH/KCN trapping); type: in vitro ADME; details: human liver microsomes 1 mg/mL protein, 10 μM substrate, NADPH, 1 mM GSH, 1 mM KCN, 37° C., 60 min
Description: Reactive Metabolite Study in Human Liver Microsomes
The compound of formula (I-A) was assessed for bioactivation in HLM using GSH and KCN as trapping agents. The compound was incubated in human liver microsomes supplemented with NADPH, KCN and GSH at 37° C. for 60 min. The incubations were conducted with 1 mg/mL protein, 10 μM substrate, 1 mM GSH (non-labeled and labeled at 3:1) and KCN 1 mM (non-labeled and labeled at 3:1) in a total volume of 1 mL. Nefazodone (10 μM) was incubated under the same conditions as a positive control. After incubations, protein precipitation was performed for extraction of the metabolites by mixing with 5× volume of acetonitrile. The proteins were pelleted by centrifugation (3000 rpm, 10 minutes, 4° C.) and the supernatants were transferred into clean test tubes and evaporated to dryness under a gentle stream of nitrogen. The resulting residues were reconstituted in 300 μL of solvent mixture of water:acetonitrile (8:2 v/v) containing 0.1% formic acid prior to filtration using 0.45 μm nylon filter at 10,000×g at room temperature for 3 minutes. The filtrate was transferred to a 96-well plate for liquid chromatography/tandem mass spectrometric (LC-MS/MS) analysis.
LC-MS/MS analysis: Agilent 1260 Infinity UHPLC was coupled to a Bruker Q-TOF. The mass spectrometers were operated in a positive electrospray ionization mode. […]

[2] = tested on: Salmonella typhimurium strains TA98 and TA mixed; assay: AMES II assay; type: cell-based; details: absence and presence of S9
Description: Biological Example 7: AMES II Assay
The aim of this study was to evaluate compound(s) and/or their metabolite(s) for their ability to induce reverse mutations in a gene of histidine-requiring Salmonella typhimurium strains to produce histidine-independent strains of these bacteria, in the absence and in the presence of a mammalian metabolic activation system.
Mutagenic potential was assessed by using an in-house adaptation of the Ames II Mutagenicity Assay kit from Xenometrics (Boulder, CA, USA). The strains TA98 and TA mixed (a combination of 6 strains) used in this study were able to detect frame-shift mutations and base pair substitutions respectively. […]
In the in vitro gene reverse mutation test, effects were determined by exposing a mutant strain of Salmonella typhimurium to various concentrations of the test compound. […] These colonies (revertants) are readily detectable due to their ability to grow on a histidine deficient medium. […] The revertant bacteria are detected by their ability to grow in the absence of the amino acid required by the parent test strain. […] The strains containing the plasmid, pKM101, are reverted by a number of mutagens that are detected weakly or not at all with the non plasmid bearing parent strains. […]

In the case of `O=C1C=C(c2c(-n3cnnn3)ccc(Cl)c2F)C[C@H]2CC[C@@H](c3ncc(-c4ccnc(CO)c4F)[nH]3)N12` [Compound of formula (I-A), (3S,8aR)-7-(3-Chloro-2-fluoro-6-(1H-tetrazol-1-yl)phenyl)-3-(5-(3-fluoro-2-(hydroxymethyl)pyridin-4-yl)-1H-imidazol-2-yl)-2,3,8,8a-tetrahydroindolizin-5(1H)-one], the “formation of GSH adducts or KCN adducts” value [1] is reported as “did not form GSH adducts or KCN adducts” and the “AMES II assay result” value [2] is reported as “negative”.
